Test results reported in patent publication US9920057B2, “Substituted pyrazino[1′,2′:1 ,6]pyrido[3,4-b]indoles as phosphodiesterase type 5 inhibitors” (Chongqing University of Arts and Sciences, priority 2015, dated 2018).
Several values for one entry are separate records, joined by “and”; a condition that tells them apart may be missing. Identical values can stand only once. Like-named read-outs stand apart in the source and are kept apart here.

What was measured:
normal rat = assay: Erectile function of normal rat: blood pressure, intracavernous pressure and detumescence time on cavernous nerve stimulation; format: in vivo
Protocol: Rats were anesthetized with 2% pentobarbital […], then incision was made in the right side of neck, a PE-50 silicon tube connected with a pressure transducer was inserted into the carotid artery, to record the change of the blood pressure.
The erectile activity was induced by a bipolar stainless-steel, stimulus parameters at a pulse width of […], stimulation frequency of 7.98 Hz, current of 3 mA, stimulation duration of 40 s, and then record the intracavernous pressure (ICP).
Assessment of erectile function: ICP, BP, change of ICP and detumescence time were monitored though electric cavernous nerve stimulation at 2, 6 and 24 hours post dosing. Erectile function was evaluated by change of ICP and detumescence time.

[1] = Study on pharmacokinetics in rats, oral administration; format: in vivo, SD rat
Protocol: Sample Preparation Method: One step protein precipitation
Precipitant: ACN, with concentration of Verapamil (5.00 ng·mL-1)
Calibration Curve and QC samples Preparation: 5.00 μL each of the calibration or QC working solution and 45.0 μL of blank plasma were transferred into a 1.5-mL microcentrifuge tube. Final standard curve concentration levels were 1.00, 2.50, 5.00, 10.0, 50.0, 100, 500 and 1000 ng·mL-1. The QC concentration levels were 2.50 or 5.00, 50.0 and 800 ng·mL-1. Dilution QC was 5000 ng·mL-1.
Plasma Samples Preparation: Aliquots of 10.0 μL of real samples, calibration curve samples and QC samples were supplemented with 100 μL of precipitant. After vortexed for 3.00 min and centrifuged at 12000 rpm for 5.00 min, the supernatant 10 μL was injected for LC-MS/MS analysis.
Number of Rats/Group: 3/group
Administration Route: oral administration
Blood Collection Time: 0 min, 15 min, 30 min, 1 h, 2 h, 4 h, 6 h, 8 h, 24 h

PDE6C = target: T1, PDE6C (Homo sapiens, UniProt P51160); assay: Inhibition of PDE activity (assay kit); format: biochemical
T1 construct: purchased
Protocol: (§1) i. Supplement 99 μl assay buffer per well, then add 1 μl compound in DMSO dilution to wells of V96 MicroWell Plates and uniformly mix;
(§2) ii. Add 5 μl compound in assay buffer dilution to each well of 96-well microplate;
(§3) the final concentration of compound as below:
(§4) The inhibitory potential of test compounds on several types of phosphodiesterase (PDE) activity is determined according to the protocol of assay kit.

PDE4A = target: T2, PDE4A (Homo sapiens, UniProt P27815); assay: Inhibition of PDE activity (assay kit); format: biochemical
T2 construct: purchased
Protocol: as §1, §2, §3, §4

PDE1A = target: T3, PDE1A (Homo sapiens, UniProt P54750); assay: Inhibition of PDE activity (assay kit); format: biochemical
T3 construct: purchased
Protocol: as §1, §2, §3, §4

PDE2A = target: T4, PDE2A (Homo sapiens, UniProt O00408); assay: Inhibition of PDE activity (assay kit); format: biochemical
T4 construct: purchased
Protocol: as §1, §2, §3, §4

PDE11A = target: T5, PDE11A (Homo sapiens, UniProt Q9HCR9); assay: Inhibition of PDE activity (assay kit); format: biochemical
T5 construct: purchased
Protocol: as §1, §2, §3, §4

PDE7A = target: T6, PDE7A (Homo sapiens, UniProt Q13946); assay: Inhibition of PDE activity (assay kit); format: biochemical
T6 construct: purchased
Protocol: as §1, §2, §3, §4

PDE3A = target: T7, PDE3A (Homo sapiens, UniProt Q14432); assay: Inhibition of PDE activity (assay kit); format: biochemical
T7 construct: purchased
Protocol: as §1, §2, §3, §4

PDE5A = target: T8, PDE5A (Homo sapiens, UniProt O76074); assay: Inhibition against PDE5 (Homogenous Time Resolve Fluoresce); format: biochemical; conditions: HTF
T8 construct: purchased SIGMA-ALDRICH E904
Protocol: Method: IC50 of an inhibition effect on PDE5A (E904, SIGMA-ALDRICH) of test compounds was tested by using Sildenafil (S1431, selleck) as a positive control sample and the method of Homogenous Time Resolve Fluoresce, HTF (Cat. No. 62GM2PEB, Cisbio.)

[2] = 2 hours after dosing, High dose
[3] = 2 hours after dosing, Middle dose
[4] = 6 hours after dosing, High dose
[5] = 6 hours after dosing, Middle dose
[6] = 24 hours after dosing, High dose
[7] = 24 hours after dosing, Low dose
[8] = 24 hours after dosing, Middle dose
[9] = Mean of 3 rats, oral 10.0 mg · kg^−1
[10] = individual rats, oral 10.0 mg · kg^−1

T3 sequence (P54750 whole entry): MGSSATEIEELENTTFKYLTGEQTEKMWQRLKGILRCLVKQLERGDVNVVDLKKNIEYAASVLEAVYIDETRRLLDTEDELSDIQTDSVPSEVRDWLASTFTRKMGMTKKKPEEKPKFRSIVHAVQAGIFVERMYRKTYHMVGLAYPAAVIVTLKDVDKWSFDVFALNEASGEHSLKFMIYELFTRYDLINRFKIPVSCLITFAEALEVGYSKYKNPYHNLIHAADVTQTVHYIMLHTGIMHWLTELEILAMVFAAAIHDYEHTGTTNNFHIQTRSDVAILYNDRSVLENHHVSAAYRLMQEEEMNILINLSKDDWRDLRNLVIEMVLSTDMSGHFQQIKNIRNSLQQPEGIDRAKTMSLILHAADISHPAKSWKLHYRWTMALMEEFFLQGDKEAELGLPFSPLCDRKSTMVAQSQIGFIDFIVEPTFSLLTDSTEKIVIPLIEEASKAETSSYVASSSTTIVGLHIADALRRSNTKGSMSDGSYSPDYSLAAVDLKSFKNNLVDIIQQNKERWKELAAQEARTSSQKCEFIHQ
T7 sequence (Q14432 whole entry): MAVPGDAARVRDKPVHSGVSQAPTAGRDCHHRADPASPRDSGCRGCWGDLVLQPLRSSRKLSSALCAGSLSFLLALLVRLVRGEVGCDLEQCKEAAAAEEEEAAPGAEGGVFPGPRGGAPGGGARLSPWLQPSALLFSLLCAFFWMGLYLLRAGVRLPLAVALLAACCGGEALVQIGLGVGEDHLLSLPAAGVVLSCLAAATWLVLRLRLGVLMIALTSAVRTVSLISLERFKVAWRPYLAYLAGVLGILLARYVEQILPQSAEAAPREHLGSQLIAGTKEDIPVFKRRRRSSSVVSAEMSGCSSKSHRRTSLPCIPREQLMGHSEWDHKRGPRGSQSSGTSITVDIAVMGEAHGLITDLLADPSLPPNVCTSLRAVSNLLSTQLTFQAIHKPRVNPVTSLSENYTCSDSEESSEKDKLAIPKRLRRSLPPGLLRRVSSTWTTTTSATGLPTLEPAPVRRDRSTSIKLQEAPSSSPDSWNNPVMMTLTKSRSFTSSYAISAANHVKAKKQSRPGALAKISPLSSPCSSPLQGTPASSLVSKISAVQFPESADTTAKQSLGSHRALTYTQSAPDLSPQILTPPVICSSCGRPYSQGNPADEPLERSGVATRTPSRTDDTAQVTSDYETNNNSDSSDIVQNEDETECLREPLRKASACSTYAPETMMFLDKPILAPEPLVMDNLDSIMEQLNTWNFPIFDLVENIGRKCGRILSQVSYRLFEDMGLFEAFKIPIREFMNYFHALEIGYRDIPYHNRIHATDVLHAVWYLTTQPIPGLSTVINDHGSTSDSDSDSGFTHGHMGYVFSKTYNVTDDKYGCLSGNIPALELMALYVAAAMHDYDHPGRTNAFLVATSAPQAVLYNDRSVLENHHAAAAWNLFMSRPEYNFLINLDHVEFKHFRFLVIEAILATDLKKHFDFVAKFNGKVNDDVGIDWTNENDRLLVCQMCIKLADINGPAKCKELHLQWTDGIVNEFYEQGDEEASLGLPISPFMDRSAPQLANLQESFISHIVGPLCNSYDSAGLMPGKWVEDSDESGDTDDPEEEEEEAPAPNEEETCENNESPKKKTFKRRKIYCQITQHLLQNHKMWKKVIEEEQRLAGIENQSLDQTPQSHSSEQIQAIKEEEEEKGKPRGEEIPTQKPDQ
T6 sequence (Q13946 whole entry): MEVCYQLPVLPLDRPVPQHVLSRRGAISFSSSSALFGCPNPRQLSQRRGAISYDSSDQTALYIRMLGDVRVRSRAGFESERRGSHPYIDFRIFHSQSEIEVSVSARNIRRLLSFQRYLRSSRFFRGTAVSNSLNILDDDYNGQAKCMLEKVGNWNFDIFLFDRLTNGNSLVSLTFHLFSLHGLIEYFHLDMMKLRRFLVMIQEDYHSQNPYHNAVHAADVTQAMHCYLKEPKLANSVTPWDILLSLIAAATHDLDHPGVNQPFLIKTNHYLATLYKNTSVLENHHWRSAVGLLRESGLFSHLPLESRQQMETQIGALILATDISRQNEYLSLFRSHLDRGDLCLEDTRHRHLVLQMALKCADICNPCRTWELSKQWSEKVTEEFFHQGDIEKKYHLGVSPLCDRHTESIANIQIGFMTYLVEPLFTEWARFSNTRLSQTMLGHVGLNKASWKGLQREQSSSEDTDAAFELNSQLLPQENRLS
T4 sequence (O00408 whole entry): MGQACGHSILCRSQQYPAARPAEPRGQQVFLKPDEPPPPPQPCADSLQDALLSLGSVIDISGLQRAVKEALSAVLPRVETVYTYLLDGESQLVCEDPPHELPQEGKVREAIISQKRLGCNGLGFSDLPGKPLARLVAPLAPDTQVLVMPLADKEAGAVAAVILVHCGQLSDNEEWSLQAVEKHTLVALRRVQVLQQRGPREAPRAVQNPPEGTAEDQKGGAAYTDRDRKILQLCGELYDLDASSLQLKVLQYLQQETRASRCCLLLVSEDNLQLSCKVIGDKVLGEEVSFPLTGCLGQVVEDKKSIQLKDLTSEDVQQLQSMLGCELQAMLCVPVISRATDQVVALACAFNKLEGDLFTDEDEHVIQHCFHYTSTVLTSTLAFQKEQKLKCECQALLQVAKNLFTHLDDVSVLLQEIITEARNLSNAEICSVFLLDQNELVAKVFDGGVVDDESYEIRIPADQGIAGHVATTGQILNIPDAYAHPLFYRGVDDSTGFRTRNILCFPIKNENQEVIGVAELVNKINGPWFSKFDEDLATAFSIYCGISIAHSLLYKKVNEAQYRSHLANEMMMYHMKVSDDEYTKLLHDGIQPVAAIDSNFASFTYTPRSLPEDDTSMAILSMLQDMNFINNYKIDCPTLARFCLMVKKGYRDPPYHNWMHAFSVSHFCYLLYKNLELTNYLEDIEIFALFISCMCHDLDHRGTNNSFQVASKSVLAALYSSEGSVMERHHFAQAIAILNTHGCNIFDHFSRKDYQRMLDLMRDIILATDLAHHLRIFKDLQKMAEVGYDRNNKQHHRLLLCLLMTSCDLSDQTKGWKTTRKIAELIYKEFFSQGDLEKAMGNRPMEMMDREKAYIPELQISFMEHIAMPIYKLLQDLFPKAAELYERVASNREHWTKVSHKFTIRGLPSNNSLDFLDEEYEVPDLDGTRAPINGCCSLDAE
T2 sequence (P27815 1-647 isoform P27815-4): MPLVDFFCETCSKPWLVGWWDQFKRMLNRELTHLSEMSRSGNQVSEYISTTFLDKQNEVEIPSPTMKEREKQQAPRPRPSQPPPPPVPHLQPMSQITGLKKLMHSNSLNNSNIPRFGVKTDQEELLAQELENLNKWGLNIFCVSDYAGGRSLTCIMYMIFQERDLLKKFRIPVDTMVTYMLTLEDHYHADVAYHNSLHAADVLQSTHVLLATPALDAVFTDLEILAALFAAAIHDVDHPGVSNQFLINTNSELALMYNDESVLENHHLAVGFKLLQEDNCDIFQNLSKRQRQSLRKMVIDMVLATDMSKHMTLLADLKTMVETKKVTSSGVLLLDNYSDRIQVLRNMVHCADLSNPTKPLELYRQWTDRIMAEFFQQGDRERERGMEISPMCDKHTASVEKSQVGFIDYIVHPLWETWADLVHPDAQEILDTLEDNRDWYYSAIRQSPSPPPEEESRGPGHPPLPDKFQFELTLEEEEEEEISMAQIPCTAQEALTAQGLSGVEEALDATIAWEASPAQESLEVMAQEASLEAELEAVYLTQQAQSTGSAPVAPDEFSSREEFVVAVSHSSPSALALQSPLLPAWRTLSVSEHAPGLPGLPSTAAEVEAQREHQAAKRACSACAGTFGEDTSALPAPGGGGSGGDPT
T5 sequence (Q9HCR9 whole entry): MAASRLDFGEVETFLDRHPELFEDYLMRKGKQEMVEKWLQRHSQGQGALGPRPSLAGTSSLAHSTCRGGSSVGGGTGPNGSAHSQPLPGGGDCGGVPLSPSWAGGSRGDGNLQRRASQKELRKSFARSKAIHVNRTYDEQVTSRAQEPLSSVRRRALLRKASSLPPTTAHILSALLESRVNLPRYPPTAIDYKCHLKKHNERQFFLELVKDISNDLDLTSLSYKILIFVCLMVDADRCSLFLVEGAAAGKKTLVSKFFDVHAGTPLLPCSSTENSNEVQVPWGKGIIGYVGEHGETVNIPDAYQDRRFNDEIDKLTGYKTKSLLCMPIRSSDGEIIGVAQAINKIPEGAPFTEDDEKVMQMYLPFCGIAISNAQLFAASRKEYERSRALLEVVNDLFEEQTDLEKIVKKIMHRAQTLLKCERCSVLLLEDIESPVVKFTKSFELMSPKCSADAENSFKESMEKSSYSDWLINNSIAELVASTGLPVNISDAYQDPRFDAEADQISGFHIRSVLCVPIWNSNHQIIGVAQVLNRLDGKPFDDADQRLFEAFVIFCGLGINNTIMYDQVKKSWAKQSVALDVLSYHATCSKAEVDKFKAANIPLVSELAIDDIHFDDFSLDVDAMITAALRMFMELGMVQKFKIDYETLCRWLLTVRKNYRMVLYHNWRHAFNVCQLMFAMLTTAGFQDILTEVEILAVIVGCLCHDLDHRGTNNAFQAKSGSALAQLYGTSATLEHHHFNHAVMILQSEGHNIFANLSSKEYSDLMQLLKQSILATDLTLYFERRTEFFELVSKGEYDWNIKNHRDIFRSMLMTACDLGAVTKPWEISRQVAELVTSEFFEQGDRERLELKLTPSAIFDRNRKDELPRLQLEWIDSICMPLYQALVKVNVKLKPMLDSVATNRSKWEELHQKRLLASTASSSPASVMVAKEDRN

SMILES: [2H]C1([2H])Oc2ccc([C@@H]3c4[nH]c5ccccc5c4C[C@@H]4C(=O)N(N)CC(=O)N34)cc2O1 [DDCI-01, (6R,12aR)-2-amino-6-(benzo[d][1,3]dioxol-5-yl-2,2-d2)-2,3,6,7,12,12a-hexahydropyrazino[1′,2′:1,6]pyrido[3,4-b]indole-1,4-dione]
- BP after stimulation (normal rat; [2]): 60.97 ± 19.95 mmHg
- BP before stimulation (normal rat; [2]): 91.86 ± 21.57 mmHg
- Change of BP (normal rat; [2]): 30.89 ± 4.09 mmHg
- Change of ICP (normal rat; [2]): 41.20 ± 9.83 mmHg
- Detumescence Time (normal rat; [2]): 101.00 ± 21.56 s
- ICP after stimulation (normal rat; [2]): 52.25 ± 9.49 mmHg
- ICP before stimulation (normal rat; [2]): 11.05 ± 3.25 mmHg
- BP after stimulation (normal rat; 2 hours after dosing, Low dose): 63.89 ± 2.93 mmHg
- BP before stimulation (normal rat; 2 hours after dosing, Low dose): 97.43 ± 11.45 mmHg
- Change of BP (normal rat; 2 hours after dosing, Low dose): 33.54 ± 13.57 mmHg
- Change of ICP (normal rat; 2 hours after dosing, Low dose): 31.38 ± 3.09 mmHg
- Detumescence Time (normal rat; 2 hours after dosing, Low dose): 38.00 ± 10.42 s
- ICP after stimulation (normal rat; 2 hours after dosing, Low dose): 42.86 ± 5.14 mmHg
- ICP before stimulation (normal rat; 2 hours after dosing, Low dose): 11.48 ± 4.57 mmHg
- BP after stimulation (normal rat; [3]): 70.38 ± 7.82 mmHg
- BP before stimulation (normal rat; [3]): 96.49 ± 7.55 mmHg
- Change of BP (normal rat; [3]): 26.12 ± 3.04 mmHg
- Change of ICP (normal rat; [3]): 33.09 ± 7.46 mmHg
- Detumescence Time (normal rat; [3]): 40.75 ± 4.79 s
- ICP after stimulation (normal rat; [3]): 41.58 ± 7.94 mmHg
- ICP before stimulation (normal rat; [3]): 8.49 ± 2.06 mmHg
- BP after stimulation (normal rat; [4]): 50.09 ± 22.36 mmHg
- BP before stimulation (normal rat; [4]): 76.38 ± 21.11 mmHg
- Change of BP (normal rat; [4]): 26.29 ± 1.54 mmHg
- Change of ICP (normal rat; [4]): 41.74 ± 7.92 mmHg
- Detumescence Time (normal rat; [4]): 64.00 ± 19.37 s
- ICP after stimulation (normal rat; [4]): 50.94 ± 11.12 mmHg
- ICP before stimulation (normal rat; [4]): 9.20 ± 8.79 mmHg
- BP after stimulation (normal rat; 6 hours after dosing, Low dose): 61.78 ± 17.93 mmHg
- BP before stimulation (normal rat; 6 hours after dosing, Low dose): 95.73 ± 18.25 mmHg
- Change of BP (normal rat; 6 hours after dosing, Low dose): 33.95 ± 3.20 mmHg
- Change of ICP (normal rat; 6 hours after dosing, Low dose): 31.38 ± 7.73 mmHg
- Detumescence Time (normal rat; 6 hours after dosing, Low dose): 47.75 ± 11.79 s
- ICP after stimulation (normal rat; 6 hours after dosing, Low dose): 40.36 ± 5.92 mmHg
- ICP before stimulation (normal rat; 6 hours after dosing, Low dose): 8.98 ± 3.06 mmHg
- BP after stimulation (normal rat; [5]): 61.03 ± 12.64 mmHg
- BP before stimulation (normal rat; [5]): 92.91 ± 19.51 mmHg
- Change of BP (normal rat; [5]): 31.88 ± 7.39 mmHg
- Change of ICP (normal rat; [5]): 33.49 ± 8.09 mmHg
- Detumescence Time (normal rat; [5]): 48.00 ± 23.85 s
- ICP after stimulation (normal rat; [5]): 40.21 ± 8.37 mmHg
- ICP before stimulation (normal rat; [5]): 6.72 ± 3.14 mmHg
- BP after stimulation (normal rat; [6]): 52.95 ± 14.12 mmHg
- BP before stimulation (normal rat; [6]): 94.16 ± 9.79 mmHg
- Change of BP (normal rat; [6]): 41.21 ± 11.98 mmHg
- Change of ICP (normal rat; [6]): 43.36 ± 4.90 mmHg
- Detumescence Time (normal rat; [6]): 60.75 ± 24.14 s
- ICP after stimulation (normal rat; [6]): 52.77 ± 2.07 mmHg
- ICP before stimulation (normal rat; [6]): 9.41 ± 3.81 mmHg
- BP after stimulation (normal rat; [7]): 72.34 ± 12.33 mmHg
- BP before stimulation (normal rat; [7]): 108.36 ± 8.89 mmHg
- Change of BP (normal rat; [7]): 36.03 ± 10.90 mmHg
- Change of ICP (normal rat; [7]): 30.65 ± 0.98 mmHg
- Detumescence Time (normal rat; [7]): 23.75 ± 12.84 s
- ICP after stimulation (normal rat; [7]): 43.55 ± 5.05 mmHg
- ICP before stimulation (normal rat; [7]): 12.91 ± 5.02 mmHg
- BP after stimulation (normal rat; [8]): 69.85 ± 12.70 mmHg
- BP before stimulation (normal rat; [8]): 102.18 ± 15.12 mmHg
- Change of BP (normal rat; [8]): 32.33 ± 8.76 mmHg
- Change of ICP (normal rat; [8]): 31.58 ± 5.75 mmHg
- Detumescence Time (normal rat; [8]): 41.25 ± 14.50 s
- ICP after stimulation (normal rat; [8]): 40.00 ± 5.56 mmHg
- ICP before stimulation (normal rat; [8]): 8.41 ± 1.86 mmHg
- erectile function of the normal rat model, result in words (normal rat; high, middle, and low doses, Tables 1-9): significantly improved the erectile function
- AUMC0-inf [1, 9]: 50280 h · h · ng · mL^−1
- AUMC0-t [1, 9]: 49982 h · h · ng · mL^−1
- Kel [1, 9]: 0.305 h⁻¹
- MRTPO [1, 9]: 4.68 h
- half-life (T1/2), comparison in words ([1]; SD rat, oral, compared with Cialis and DDCI02): slightly shorter than that of Cialis and significantly shorter than that of DDCI02
- half-life ([1]; SD, rat, plasma, po, 10 mg/kg, Mean of 3 rats, oral 10.0 mg · kg^−1): 137 min
- AUC0-inf ([1]; SD, rat, plasma, po, 10 mg/kg, Mean of 3 rats, oral 10.0 mg · kg^−1, read-out: AUC0-inf): 10800 ng·h/mL
- AUC0-t ([1]; SD, rat, plasma, po, 10 mg/kg, Mean of 3 rats, oral 10.0 mg · kg^−1, read-out: AUC0-t): 10800 ng·h/mL
- Cmax ([1]; SD, rat, plasma, po, 10 mg/kg, Mean of 3 rats, oral 10.0 mg · kg^−1, read-out: Cmax): 1470 ng/mL
- half-life ([1]; SD, rat, plasma, po, 10 mg/kg, individual rats, oral 10.0 mg · kg^−1): 127 min
- AUC0-inf ([1]; SD, rat, plasma, po, 10 mg/kg, individual rats, oral 10.0 mg · kg^−1, read-out: AUC0-inf): 9980 ng·h/mL
- AUC0-t ([1]; SD, rat, plasma, po, 10 mg/kg, individual rats, oral 10.0 mg · kg^−1, read-out: AUC0-t): 9970 ng·h/mL
- Cmax ([1]; SD, rat, plasma, po, 10 mg/kg, individual rats, oral 10.0 mg · kg^−1, read-out: Cmax): 1300 ng/mL
- Tmax ([1]; SD, rat, plasma, individual rats, oral 10.0 mg · kg^−1): 2 h
- AUC0-inf [1, 10]: 11221 ng·h/mL and 11087 ng·h/mL
- AUC0-t [1, 10]: 11202 ng·h/mL and 11080 ng·h/mL
- AUMC0-inf [1, 10]: 48665 h · h · ng · mL^−1 and 51065 h · h · ng · mL^−1 and 51110 h · h · ng · mL^−1
- AUMC0-t [1, 10]: 48497 h · h · ng · mL^−1 and 50539 h · h · ng · mL^−1 and 50911 h · h · ng · mL^−1
- Cmax [1, 10]: 1574 ng/mL and 1528 ng/mL
- Kel [1, 10]: 0.327 h⁻¹ and 0.269 h⁻¹ and 0.319 h⁻¹
- MRTPO [1, 10]: 4.88 h and 4.55 h and 4.61 h
- t1/2 [1, 10]: 2.58 h and 2.17 h
- Cmax and Auc, comparison in words ([1]; rat, oral, compared with Cialis): more excellent than those of Cialis
- IC50 (PDE6C): 14.7 µM
- IC50 (PDE4A; PDE4A): > 10 µM
- inhibition at 10 µM (PDE4A; PDE4A1A, at 10 μM): 0%
- IC50 (PDE1A): > 10 µM
- inhibition at 10 µM (PDE1A; at 10 μM): 0%
- IC50 (PDE2A): > 10 µM
- inhibition at 10 µM (PDE2A; at 10 μM): 0%
- IC50 (PDE11A): 2600 nM and 2640 nM
- IC50 (PDE7A): > 10 µM
- inhibition at 10 µM (PDE7A; at 10 μM): 0%
- IC50 (PDE3A): > 10 µM
- inhibition at 10 µM (PDE3A; at 10 μM): 0%
- IC50 (PDE5A): 33.6 nM
